Data: publication PMC8206213, “An L-2-hydroxyglutarate biosensor based on specific transcriptional regulator LhgR” (Nature Communications, 2021)
Values joined by “and” are separate entries in the source; they are usually repeats but may differ in a detail not shown here. Equal entries are not always repeated. Where two headings read alike, the source gives them in different places.

How the values were obtained:
LHGFR0N7C [1] = assay: Influence of other compounds on the response of purified LHGFR0N7C to L-2-HG; type: binding, Pseudomonas putida W619; settings: Suppl. Fig. 9b; L-2-HG alone or with the compound; three replicates
Protocol: (§1) Purified L-2-HG biosensors and different compounds were diluted by 50 mM Tris-HCl buffer (pH 7.4), mixed together in a black 96-well plate at a volume ratio of 3:1, and the fluorescence intensities were measured using an EnSight microplate reader (PerkinElmer, USA) with excitation at 430 nm, emission at 485 nm (mTFP) and 528 nm (Venus). […] The [L-2-HG], Kd, and p refer to the L-2-HG concentration, apparent dissociation constant, and Hill slope, respectively. Emission spectra were recorded at 430 nm excitation, in steps of 2 nm. Excitation spectra were recorded using emission at 550 nm, excitation from 380 to 535 nm in steps of 2 nm.

LHGFR0N7C [2] = assay: Specificity of purified LHGFR0N7C, emission ratio with 240 μM compounds; type: binding, Pseudomonas putida W619; settings: 240 μM compound
Protocol: as §1

LhgR = assay: EMSA, effect of compounds on LhgR binding to the lhgO promoter region F1; set-up: species or system Pseudomonas putida W619; settings: 50 mM compound, 10 nM F1, 60 nM LhgR
Protocol: Electrophoretic mobility shift assays (EMSAs) were carried out using the DNA fragment (F1 or F2) and purified LhgR. The DNA fragments were first amplified by primer pairs F1-F/F1-R and F2-F/F2-R, respectively. Then, either fragment at a concentration of 10 nM DNA was incubated with LhgR (0–160 nM) in 20 μL EMSA binding buffer (10 mM Tris-HCl [pH 7.4], 50 mM KCl, 0.5 mM EDTA, 10% [vol/vol] glycerol, and 1 mM dithiothreitol [DTT]). The binding reactions were carried out at 30 °C for 30 min. Electrophoresis was performed on 6% native polyacrylamide gels at 4 °C and 170 V (constant voltage) for about 45 min, followed by staining with SYBR green I (TaKaRa, China) and photographing. Analysis of the interaction between lhgO promoter region (F1) and LHGFR was performed using the same procedure.
To characterize the effector of LhgR, purified LhgR was first incubated with L-lysine, 5-aminovalerate, glutarate, L-2-HG, D-2-HG, 2-KG, or succinate at 30 °C for 15 min, followed by incubation with the added DNA fragments at 30 °C for 30 min. The mixtures were subsequently subjected to electrophoresis.

LHGFR0N3C [3] = assay: Influence of other compounds on the response of purified LHGFR0N3C to L-2-HG; type: binding, Pseudomonas putida W619; settings: Suppl. Fig. 9a; L-2-HG alone or with the compound; three replicates
Protocol: as §1

LHGFR0N3C [4] = assay: Specificity of purified LHGFR0N3C, emission ratio with 240 μM compounds; type: binding, Pseudomonas putida W619; settings: 240 μM compound
Protocol: as §1

HEK293FT cells = assay: Hypoxia-induced L-2-HG production in LHGFR-expressing HEK293FT cells with or without 5 mM DMαKG; type: cell-based, human; settings: for L-2-HG concentration: in µM
Protocol: HEK293FT cells were cultured in high-glucose Dulbecco’s modified eagle medium (DMEM) supplemented with 10% (vol/vol) fetal bovine serum (FBS), 100 units mL^−1 penicillin, and 100 μg mL^−1 streptomycin (all purchased from ThermoFisher, USA), and kept at 37 °C in humidified air containing 5% CO2. For hypoxia experiments, cells were kept in a compact O2 and CO2 subchamber controller (ProOx C21, BioSpherix, USA) at 2% O2, 5% CO2, and balanced with N2 for 24 h. For the construction of LHGFR expressing cell, HEK293FT cells were plated in 24-well plates so that they reached 70-90% confluency 24 h after plating, the medium was refreshed 2 h before transfection.
The preparation of cell suspensions and the measurement of emission ratios were performed using the same procedure. The background fluorescence was subtracted at each emission wavelength.

P. putida KT2440 [5] = type: cell-based, Pseudomonas putida KT2440; settings: Fig. 4j
Protocol: The bacterial strains used in this study are listed in Supplementary Data 1. E. coli and its derivatives were cultured in Luria–Bertani (LB) broth at 37 °C and 180 rpm. P. putida KT2440 and its derivatives were grown in minimal salt mediums (MSMs) containing different carbon sources at 30 °C and 200 rpm. Antibiotics were used at the following concentrations: tetracycline at 30 μg mL^−1; kanamycin at 50 μg mL^−1; ampicillin at 100 μg mL^−1; spectinomycin, at 50 μg mL^−1; and chloramphenicol at 40 μg mL^−1.

P. putida KT2440 [6] = type: cell-based, Pseudomonas putida KT2440

## O=C(O)CCC(=O)C(=O)O [2-KG, 2-ketoglutarate]
LHGFR0N7C [1]
  Emission ratio: 2.436 and 2.603 and 2.441
LHGFR0N7C [2]
  Emission ratio: 1.701 and 1.693 and 1.728
  Induction of emission ratio changes: None
LhgR
  Effect on LhgR binding to the lhgO promoter region F1: observed only in the presence of L-2-HG
LHGFR0N3C [3]
  Emission ratio: 2.007 and 2.049 and 2.099
LHGFR0N3C [4]
  Emission ratio: 1.349 and 1.385 and 1.381
  Induction of emission ratio changes: None

## NCCCCC(=O)O [5-Aminovalerate, 5-aminovalerate]
LHGFR0N7C [1]
  Emission ratio: 2.625 and 2.696 and 2.709
LHGFR0N7C [2]
  Emission ratio: 1.703 and 1.69 and 1.7015
  Induction of emission ratio changes: None
LhgR
  Effect on LhgR binding to the lhgO promoter region F1: observed only in the presence of L-2-HG
LHGFR0N3C [3]
  Emission ratio: 2.084 and 2.019 and 2.1
LHGFR0N3C [4]
  Emission ratio: 1.403 and 1.397 and 1.408
  Induction of emission ratio changes: None

## COC(=O)CCC(=O)C(=O)OC [DMaKG]
HEK293FT cells; 2% O2, With DMaKG, Supplementary Fig. 18e
  Normalized emission ratio: 1.018 and 0.9342 and 1.029 and 0.9552
HEK293FT cells; 21% O2, With DMaKG, Supplementary Fig. 18e
  Normalized emission ratio: 1.029 and 0.993 and 1.008 and 0.9754
HEK293FT cells; Fig. 6f, 2% O2, With DMaKG
  Normalized emission ratio: 1.196 and 1.188 and 1.187 and 1.206
  L-2-HG concentration: 547.911 and 427.301 and 412.83 and 794.44
HEK293FT cells; Fig. 6f, 21% O2, With DMaKG
  Normalized emission ratio: 1.081 and 1.084 and 1.102 and 1.071
  L-2-HG concentration: 66.2807 and 68.36 and 87.5008 and 58.4114

## OC[C@H]1OC(O)[C@H](O)[C@@H](O)[C@@H]1O (stereo partly drawn) [Glucose, glucose]
P. putida KT2440 [5]; DlhgO, 0 h
  Growth: 0.077 and 0.079 and 0.073
P. putida KT2440 [5]; DlhgO, 2 h
  Growth: 0.083 and 0.078 and 0.075
P. putida KT2440 [5]; DlhgO, 4 h
  Growth: 0.24 and 0.208 and 0.228
P. putida KT2440 [5]; DlhgO, 6 h
  Growth: 0.666 and 0.603 and 0.661
P. putida KT2440 [5]; DlhgO, 8 h
  Growth: 1.5 and 1.401 and 1.461
P. putida KT2440 [5]; DlhgO, 10 h
  Growth: 3.165 and 3.065
P. putida KT2440 [5]; DlhgO, 12 h
  Growth: 3.835 and 3.65 and 3.86
P. putida KT2440 [5]; DlhgO, 14 h
  Growth: 3.605 and 3.535 and 3.66
P. putida KT2440 [5]; DlhgO, 16 h
  Growth: 3.66 and 3.5 and 3.7
P. putida KT2440 [5]; WT, 0 h
  Growth: 0.077 and 0.08 and 0.081
P. putida KT2440 [5]; WT, 2 h
  Growth: 0.079 and 0.092
P. putida KT2440 [5]; WT, 4 h
  Growth: 0.25 and 0.292 and 0.281
P. putida KT2440 [5]; WT, 6 h
  Growth: 0.635 and 0.605 and 0.701
P. putida KT2440 [5]; WT, 8 h
  Growth: 1.404 and 1.446 and 1.5
P. putida KT2440 [5]; WT, 10 h
  Growth: 2.675 and 2.785 and 2.9
P. putida KT2440 [5]; WT, 12 h
  Growth: 3.11 and 3.205 and 3.1
P. putida KT2440 [5]; WT, 14 h
  Growth: 3.13 and 3.115 and 3.035
P. putida KT2440 [5]; WT, 16 h
  Growth: 3.015 and 3.115 and 3.15
P. putida KT2440 [6]; DlhgO, 0 h, Fig. 4l
  Extracellular L-2-HG accumulation: 0.0018 and 0.00159 and 0.00178
P. putida KT2440 [6]; DlhgO, 2 h, Fig. 4k
  Extracellular L-2-HG accumulation: 0.00214 and 0.00144 and 0.00151
P. putida KT2440 [6]; DlhgO, 2 h, Fig. 4l
  Extracellular L-2-HG accumulation: 0.00161 and 0.00173 and 0.00155
P. putida KT2440 [6]; DlhgO, 4 h, Fig. 4l
  Extracellular L-2-HG accumulation: 0.00126 and 0.00158 and 0.00143
P. putida KT2440 [6]; DlhgO, 6 h, Fig. 4k
  Extracellular L-2-HG accumulation: 0.0027 and 0.00158 and 0.00192
P. putida KT2440 [6]; DlhgO, 6 h, Fig. 4l
  Extracellular L-2-HG accumulation: 0.00592 and 0.00434 and 0.00414
P. putida KT2440 [6]; DlhgO, 8 h, Fig. 4l
  Extracellular L-2-HG accumulation: 0.00588 and 0.0049 and 0.00675
P. putida KT2440 [6]; DlhgO, 10 h, Fig. 4k
  Extracellular L-2-HG accumulation: 0.00624 and 0.00847 and 0.00636
P. putida KT2440 [6]; DlhgO, 10 h, Fig. 4l
  Extracellular L-2-HG accumulation: 0.00724 and 0.00794 and 0.00631
P. putida KT2440 [6]; DlhgO, 12 h, Fig. 4k
  Extracellular L-2-HG accumulation: 0.0023 and 0.00219 and 0.00146
P. putida KT2440 [6]; DlhgO, 12 h, Fig. 4l
  Extracellular L-2-HG accumulation: 0.0051 and 0.00546 and 0.00628
P. putida KT2440 [6]; DlhgO, 14 h, Fig. 4l
  Extracellular L-2-HG accumulation: 0.00618 and 0.0058 and 0.00573
P. putida KT2440 [6]; DlhgO, 16 h, Fig. 4k
  Extracellular L-2-HG accumulation: 0.00357 and 0.00321 and 0.00356
P. putida KT2440 [6]; DlhgO, 16 h, Fig. 4l
  Extracellular L-2-HG accumulation: 0.00553 and 0.0046 and 0.00552
P. putida KT2440 [6]; WT, 0 h, Fig. 4k
  Extracellular L-2-HG accumulation: 6.56E-04 and 9.68E-04 and 7.73E-04
P. putida KT2440 [6]; WT, 0 h, Fig. 4l
  Extracellular L-2-HG accumulation: 9.79E-04 and 0.00104 and 6.27E-04
P. putida KT2440 [6]; WT, 2 h, Fig. 4k
  Extracellular L-2-HG accumulation: 1.95E-04 and 2.26E-04 and 1.15E-04
P. putida KT2440 [6]; WT, 2 h, Fig. 4l
  Extracellular L-2-HG accumulation: 0.00114 and 7.97E-04 and 9.51E-04
P. putida KT2440 [6]; WT, 4 h, Fig. 4l
  Extracellular L-2-HG accumulation: 5.39E-04 and 5.72E-04 and 5.29E-04
P. putida KT2440 [6]; WT, 6 h, Fig. 4l
  Extracellular L-2-HG accumulation: 0.00521 and 0.00557 and 0.00468
P. putida KT2440 [6]; WT, 8 h, Fig. 4k
  Extracellular L-2-HG accumulation: 0.00293 and 0.00233 and 0.00276
P. putida KT2440 [6]; WT, 8 h, Fig. 4l
  Extracellular L-2-HG accumulation: 0.0081 and 0.00438 and 0.0052
P. putida KT2440 [6]; WT, 10 h, Fig. 4l
  Extracellular L-2-HG accumulation: 0.00453 and 0.00483 and 0.00472
P. putida KT2440 [6]; WT, 12 h, Fig. 4l
  Extracellular L-2-HG accumulation: 0.00448 and 0.00573 and 0.00522
P. putida KT2440 [6]; WT, 14 h, Fig. 4k
  Extracellular L-2-HG accumulation: 0.00683 and 0.00582 and 0.00462
P. putida KT2440 [6]; WT, 14 h, Fig. 4l
  Extracellular L-2-HG accumulation: 0.0046 and 0.00456 and 0.00492
P. putida KT2440 [6]; WT, 16 h, Fig. 4k
  Extracellular L-2-HG accumulation: 0
P. putida KT2440 [6]; WT, 16 h, Fig. 4l
  Extracellular L-2-HG accumulation: 0.00403 and 0.00579 and 0.0044
